Experimental data taken from paper PMC6199744, “Development of Chemical Proteomics for the Folateome and Analysis of the Kinetoplastid Folateome” (ACS Infectious Diseases, 2018).
Like-named read-outs stand apart in the source and are kept apart here.

Assays:
Format in all cases: binding
[1] = molecular target: T1, HeLa cell extract proteins (Homo sapiens, UniProt Q15393)
T1 construct: endogenous in cells; host or cells: HeLa cell extract

[2] = molecular target: T2, HeLa cell extract proteins (Homo sapiens, UniProt P63241)
T2 construct: endogenous in cells; host or cells: HeLa cell extract

[3] = molecular target: T3, HeLa cell extract proteins (Homo sapiens, UniProt P55209)
T3 construct: endogenous in cells; host or cells: HeLa cell extract
T3 sequence (P55209 1-391): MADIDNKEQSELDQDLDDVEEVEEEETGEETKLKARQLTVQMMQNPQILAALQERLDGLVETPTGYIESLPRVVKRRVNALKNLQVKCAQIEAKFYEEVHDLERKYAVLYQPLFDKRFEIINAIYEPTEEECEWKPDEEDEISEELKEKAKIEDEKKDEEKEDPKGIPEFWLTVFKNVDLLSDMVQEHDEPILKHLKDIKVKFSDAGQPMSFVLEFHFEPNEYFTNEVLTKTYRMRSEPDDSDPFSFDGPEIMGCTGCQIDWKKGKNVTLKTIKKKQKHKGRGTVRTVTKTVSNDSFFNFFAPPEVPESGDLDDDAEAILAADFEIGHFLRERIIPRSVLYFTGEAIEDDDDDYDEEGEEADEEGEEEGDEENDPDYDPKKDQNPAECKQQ

[4] = molecular target: T4, HeLa cell extract proteins (Homo sapiens, UniProt P62888)
T4 construct: endogenous in cells; host or cells: HeLa cell extract

[5] = molecular target: T5, HeLa cell extract proteins (Homo sapiens, UniProt O94855)
T5 construct: endogenous in cells; host or cells: HeLa cell extract
T5 sequence (O94855 1-1032): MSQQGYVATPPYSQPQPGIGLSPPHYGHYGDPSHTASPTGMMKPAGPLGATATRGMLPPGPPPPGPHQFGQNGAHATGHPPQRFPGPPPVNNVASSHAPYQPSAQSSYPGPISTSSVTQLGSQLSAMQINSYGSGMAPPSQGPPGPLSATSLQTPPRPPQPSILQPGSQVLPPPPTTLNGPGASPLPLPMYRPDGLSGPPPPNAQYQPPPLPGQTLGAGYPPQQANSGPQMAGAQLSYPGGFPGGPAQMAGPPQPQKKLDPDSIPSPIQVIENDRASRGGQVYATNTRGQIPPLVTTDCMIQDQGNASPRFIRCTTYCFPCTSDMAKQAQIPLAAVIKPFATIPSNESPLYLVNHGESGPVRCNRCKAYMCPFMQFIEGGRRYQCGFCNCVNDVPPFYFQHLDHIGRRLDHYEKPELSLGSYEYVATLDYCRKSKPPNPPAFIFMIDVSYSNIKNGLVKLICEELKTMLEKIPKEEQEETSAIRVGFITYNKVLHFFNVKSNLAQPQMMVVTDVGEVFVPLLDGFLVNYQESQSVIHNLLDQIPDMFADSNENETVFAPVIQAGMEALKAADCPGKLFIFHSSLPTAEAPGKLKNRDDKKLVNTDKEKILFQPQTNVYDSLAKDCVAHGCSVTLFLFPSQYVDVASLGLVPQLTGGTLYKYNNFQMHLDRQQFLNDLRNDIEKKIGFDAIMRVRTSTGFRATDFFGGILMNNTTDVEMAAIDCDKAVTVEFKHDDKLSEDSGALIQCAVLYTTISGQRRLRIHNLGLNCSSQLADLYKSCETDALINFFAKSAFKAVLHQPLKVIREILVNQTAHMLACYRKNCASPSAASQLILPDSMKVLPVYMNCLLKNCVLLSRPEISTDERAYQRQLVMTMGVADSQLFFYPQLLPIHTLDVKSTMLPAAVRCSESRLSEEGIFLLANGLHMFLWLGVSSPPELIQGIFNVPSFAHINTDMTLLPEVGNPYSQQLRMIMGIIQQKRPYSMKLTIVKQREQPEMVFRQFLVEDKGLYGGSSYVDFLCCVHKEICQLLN

[6] = molecular target: T6, HeLa cell extract proteins (Homo sapiens, UniProt Q08945); settings: protein SSRP1; HeLa
T6 construct: endogenous in cells; host or cells: HeLa cell extract

[7] = molecular target: T7, HeLa cell extract proteins (Homo sapiens, UniProt P14314); settings: HeLa; protein PRKCSH (CDNA FLJ59211, HIGHLY SIMILAR TO GLUCOSIDASE 2 SUBUNIT BETA.)
T7 construct: endogenous in cells; host or cells: HeLa cell extract
T7 sequence (P14314 15-528): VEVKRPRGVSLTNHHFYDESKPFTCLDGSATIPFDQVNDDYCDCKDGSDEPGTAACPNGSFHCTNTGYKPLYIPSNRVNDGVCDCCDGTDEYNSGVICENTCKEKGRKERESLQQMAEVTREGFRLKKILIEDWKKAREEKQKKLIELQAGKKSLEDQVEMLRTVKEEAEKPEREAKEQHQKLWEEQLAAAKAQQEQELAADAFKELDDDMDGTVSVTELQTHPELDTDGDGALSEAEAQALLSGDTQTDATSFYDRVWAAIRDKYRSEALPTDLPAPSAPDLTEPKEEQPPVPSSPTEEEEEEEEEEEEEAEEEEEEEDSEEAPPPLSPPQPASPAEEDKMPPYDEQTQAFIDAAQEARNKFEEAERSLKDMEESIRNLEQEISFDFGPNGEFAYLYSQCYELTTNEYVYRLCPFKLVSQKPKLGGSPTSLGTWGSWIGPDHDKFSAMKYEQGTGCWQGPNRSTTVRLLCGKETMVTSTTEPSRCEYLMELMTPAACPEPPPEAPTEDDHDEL

[8] = molecular target: T8, HeLa cell extract proteins (Homo sapiens, UniProt P10155); settings: protein TROVE2; HeLa
T8 construct: endogenous in cells; host or cells: HeLa cell extract
T8 sequence (P10155 whole entry): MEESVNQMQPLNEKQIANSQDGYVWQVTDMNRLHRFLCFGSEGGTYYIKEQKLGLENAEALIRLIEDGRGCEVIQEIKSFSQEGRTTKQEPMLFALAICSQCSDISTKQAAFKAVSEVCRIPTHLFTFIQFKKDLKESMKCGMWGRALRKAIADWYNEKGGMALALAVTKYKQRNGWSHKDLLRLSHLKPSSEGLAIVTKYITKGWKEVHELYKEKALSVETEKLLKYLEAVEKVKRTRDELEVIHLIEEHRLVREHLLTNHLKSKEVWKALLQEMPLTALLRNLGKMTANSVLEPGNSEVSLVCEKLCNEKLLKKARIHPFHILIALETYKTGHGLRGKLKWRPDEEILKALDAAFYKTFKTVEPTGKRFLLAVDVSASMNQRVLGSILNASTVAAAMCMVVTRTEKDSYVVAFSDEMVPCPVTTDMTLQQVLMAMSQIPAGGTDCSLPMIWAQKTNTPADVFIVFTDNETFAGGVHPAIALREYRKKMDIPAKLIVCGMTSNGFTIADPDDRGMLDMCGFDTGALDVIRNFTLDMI

T2 sequence (P63241 whole entry): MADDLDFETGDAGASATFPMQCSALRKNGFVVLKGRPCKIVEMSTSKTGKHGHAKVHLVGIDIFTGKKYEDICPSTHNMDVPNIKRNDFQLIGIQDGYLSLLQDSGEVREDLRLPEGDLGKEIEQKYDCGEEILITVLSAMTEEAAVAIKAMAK
T1 sequence (Q15393 whole entry): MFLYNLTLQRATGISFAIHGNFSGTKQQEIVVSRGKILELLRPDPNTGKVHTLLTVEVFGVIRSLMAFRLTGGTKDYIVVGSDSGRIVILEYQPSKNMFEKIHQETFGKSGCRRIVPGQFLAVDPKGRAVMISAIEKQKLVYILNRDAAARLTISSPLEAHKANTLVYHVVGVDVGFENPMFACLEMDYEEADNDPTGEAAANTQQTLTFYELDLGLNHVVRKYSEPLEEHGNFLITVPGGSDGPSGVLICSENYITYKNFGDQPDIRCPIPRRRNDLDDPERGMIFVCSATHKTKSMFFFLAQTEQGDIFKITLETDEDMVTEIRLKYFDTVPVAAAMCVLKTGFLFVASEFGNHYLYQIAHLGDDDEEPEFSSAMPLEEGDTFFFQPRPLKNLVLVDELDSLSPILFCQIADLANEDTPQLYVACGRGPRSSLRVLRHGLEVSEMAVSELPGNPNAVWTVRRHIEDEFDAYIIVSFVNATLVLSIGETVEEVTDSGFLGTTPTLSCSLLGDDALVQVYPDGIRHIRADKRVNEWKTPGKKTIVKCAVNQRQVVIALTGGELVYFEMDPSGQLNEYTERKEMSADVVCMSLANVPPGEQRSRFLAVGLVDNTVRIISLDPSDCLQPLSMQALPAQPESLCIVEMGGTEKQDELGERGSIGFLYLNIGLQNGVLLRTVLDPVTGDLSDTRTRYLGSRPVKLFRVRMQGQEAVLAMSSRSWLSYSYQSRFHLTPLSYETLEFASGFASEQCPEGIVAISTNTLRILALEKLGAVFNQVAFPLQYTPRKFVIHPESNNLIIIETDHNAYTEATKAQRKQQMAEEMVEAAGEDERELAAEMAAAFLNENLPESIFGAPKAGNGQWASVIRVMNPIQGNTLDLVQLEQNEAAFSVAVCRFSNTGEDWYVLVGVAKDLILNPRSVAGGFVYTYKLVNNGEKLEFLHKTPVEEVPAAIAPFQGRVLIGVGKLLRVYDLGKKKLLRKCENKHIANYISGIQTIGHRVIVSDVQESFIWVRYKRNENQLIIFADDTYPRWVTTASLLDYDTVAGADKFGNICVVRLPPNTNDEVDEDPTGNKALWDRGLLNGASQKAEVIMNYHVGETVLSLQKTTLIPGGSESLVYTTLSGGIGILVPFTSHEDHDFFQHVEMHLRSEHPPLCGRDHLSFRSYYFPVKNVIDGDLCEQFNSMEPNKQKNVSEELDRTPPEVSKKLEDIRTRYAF
T6 sequence (Q08945 whole entry): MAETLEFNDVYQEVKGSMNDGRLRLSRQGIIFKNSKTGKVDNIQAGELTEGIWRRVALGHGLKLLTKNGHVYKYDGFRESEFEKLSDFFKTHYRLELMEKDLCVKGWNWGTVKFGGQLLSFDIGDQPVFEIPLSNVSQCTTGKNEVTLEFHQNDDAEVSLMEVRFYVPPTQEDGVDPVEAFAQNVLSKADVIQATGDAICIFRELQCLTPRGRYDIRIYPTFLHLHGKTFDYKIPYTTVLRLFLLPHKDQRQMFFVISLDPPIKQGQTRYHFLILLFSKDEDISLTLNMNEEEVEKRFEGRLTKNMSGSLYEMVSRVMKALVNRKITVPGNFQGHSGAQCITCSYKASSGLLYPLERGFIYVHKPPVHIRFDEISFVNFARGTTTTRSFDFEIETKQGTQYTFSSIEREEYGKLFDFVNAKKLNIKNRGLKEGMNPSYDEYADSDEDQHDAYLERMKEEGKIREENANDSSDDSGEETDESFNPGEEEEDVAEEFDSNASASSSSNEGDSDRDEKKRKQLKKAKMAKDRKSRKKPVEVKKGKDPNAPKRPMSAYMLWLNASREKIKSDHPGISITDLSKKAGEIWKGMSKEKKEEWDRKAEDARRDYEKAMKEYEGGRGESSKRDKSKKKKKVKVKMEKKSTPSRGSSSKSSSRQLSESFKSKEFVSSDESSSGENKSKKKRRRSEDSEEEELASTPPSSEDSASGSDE

| SMILES | fold changes relative to vehicle control ([1]; HeLa, protein SF3B3) | fold changes relative to vehicle control ([2]; HeLa, captured protein EIF5A) | fold changes relative to vehicle control ([3]; HeLa, captured protein NAP1L1) | fold changes relative to vehicle control ([4]; protein RPL30, HeLa) | fold changes relative to vehicle control ([5]; HeLa, captured protein SEC24D) | fold changes relative to vehicle control [6] | fold changes relative to vehicle control [7] [fold] | fold changes relative to vehicle control [8] | also measured |
| --- | --- | --- | --- | --- | --- | --- | --- | --- | --- |
| Nc1nc2c(c(=O)[nH]1)N(C=O)C(CNc1ccc(C(=O)N[C@@H](CCC(=O)O)C(=O)O)cc1)CN2 (some centres unmarked) [LEU, leucovorin] | 1.09 | 1.12 | 0.97 | 0.86 | 1.12 |  |  |  |  |
| Nc1nc2[nH]cc(CCc3ccc(C(=O)N[C@@H](CCC(=O)O)C(=O)O)cc3)c2c(=O)[nH]1 [PTX, pemetrexed] |  |  |  |  |  |  |  |  | fold changes relative to vehicle control [1]: 1.16; fold changes relative to vehicle control [2]: 1.32; fold changes relative to vehicle control [3]: 1.04; fold changes relative to vehicle control [4]: 0.89; fold changes relative to vehicle control [5]: 1.09 |
| CCCCCCOc1ccc(Cc2cnc(N)nc2N)cc1 [compound 1] |  |  |  |  |  | 0.93 | 1.76 | 1.05 |  |
| CCCCCCOc1cccc(Cc2cnc(N)nc2N)c1 [compound 2] |  |  |  |  |  | 1.44 | 2.8 | 1.49 |  |
| Nc1nc2cccc(-c3ccccc3)c2n1Cc1ccc(Cl)c(Cl)c1 [compound 3] |  |  |  |  |  | 0.95 | 1.26 | 1.27 |  |
| NCCOCCOCC(=O)Nc1nc2ncc(CNc3ccc(C(=O)NC(CCC(=O)O)C(=O)O)cc3)nc2c(=O)[nH]1 (centres unmarked) [compound 6] | 1.18 | 1.61 | 1.19 | 1 | 1.15 |  |  |  |  |
| NCCCNc1ccc(C(=O)NC(CCC(=O)O)C(=O)O)cc1 (centres unmarked) [compound 7] | 1.19 | 1.02 | 1.06 | 0.92 | 1.04 |  |  |  |  |
